Laboratory results taken from US20040200144A1, “Plant growth regulator and a method of producing the regulator” (Dainichiseika Color & Chemicals Mfg. Co., Ltd., priority 2003, published 2004).

Legend:
cucumber young plants = experiment: Dwarfing test of cucumber young plant; format: in vivo; settings: for Plant Height / Dwarfing Rate: 5 ml per cell on 7th day, measured 20th day; for Dwarfing Rate: vs comparative group
Description: After seeding, the pot was placed in the same greenhouse as described above to sprout. Subsequently, on the 5th day, the cinnamic aqueous acid solutions were added to the nursery soil in the joint pots. One of the joint pots (24 cells) was prepared as a 0.05% cinnamic acid aqueous solution addition group, and 5 ml of the 0.05% cinnamic acid aqueous solution was added to the nursery soil of each cell. Another one of the join pots was prepared as a 0.2% cinnamic acid aqueous solution addition group, and 5 ml of the 0.2% cinnamic acid aqueous solution was added to the nursery soil of each cell. […] Subsequently, the cultivation of carrot young plants in each group was continued under general conditions. On the 27th day, the heights of young plants in each group were measured, the dwarfing rate (%) was calculated, and the dwarfing effect of cinnamic acid aqueous solution on carrot young plants was examined. From the results in Table 5, it became evident that the 0.05% and 0.2% cinnamic acid aqueous solutions are effective in dwarfing carrot young plants. In the same way as in Example 5 except that seeds of cauliflower were sowed, the cinnamic acid solutions were added to the nursery soil in the joint pot on the 4th day, and that heights of young plants in each group were measured on the 20th day, the dwarfing effect of cinnamic acid aqueous solution on cauliflower young plants was examined. From the results in Table 12, it became evident that the cinnamic acid aqueous solutions are effective in dwarfing cauliflower young plants. In the same way as in Example 12 except that seeds of tomato were sowed, and that the cinnamic acid solutions were added to the nursery soil of the joint pot on the 7th day, the dwarfing effect of cinnamic acid aqueous solution on tomato young plants was examined. From the results in Table 17, it became evident that the cinnamic acid aqueous solutions are effective in dwarfing tomato young plants. In the same way as in Example 17 except that seeds of cucumber were sowed, the dwarfing effect of cinnamic acid aqueous solution on cucumber young plants was examined. From the results in Table 18, it became evident that the cinnamic acid aqueous solutions are effective in dwarfing cucumber young plants.

geranium young plants = experiment: Dwarfing test of geranium young plant; format: in vivo; settings: for Plant Height / Dwarfing Rate: 100 ml per pot on 3rd day, measured 44th day; for Dwarfing Rate: vs comparative group
From the text: Dwarfing rate (%)=[(the plant height of the comparative group)−(the plant height of an addition group)/the plant height of the comparative group]×100 In addition, “plant height” in all the tables below was an average of heights from a surface of the soil of a pot used in each test to a head portion of the plant. 160 g of cinnamic acid, 80 g of dispersant (lignin sulfonic sodium) and 293 g of water were mixed, 1,800 g of glass beads (with diameters of 1 to 1.25 mm) were further added, the resultant was added into a vessel of a dispersion apparatus (RM test sand mill with six parallel barrels) and underwent dispersion processing at 120 rpm for three hours, and 30% cinnamic acid dispersion (with the average diameter of cinnamic acid of 0.3 μm) was prepared. The dispersion was diluted with distilled water 300 times or 3,000 times, and thus 0.1% cinnamic acid dispersion and 0.01% cinnamic acid dispersion were prepared, respectively. 30 pots of geranium young plants each with 10 to 12 leaves and a height of 7 cm ware purchased, and placed in a built-up indoor aluminum greenhouse (440×840×1500 mm) at 25° C. On the 3rd day, the cinnamic dispersions as described above were added to the geranium pots. Among 30 pots, 10 pots were prepared as a 0.01% cinnamic acid dispersion addition group, and 100 ml of the 0.01% cinnamic acid dispersion was added to the nursery soil of each pot. Another 10 pots were prepared as a 0.1% cinnamic acid dispersion addition group, and 100 ml of the 0.1% cinnamic acid dispersion was added to the nursery soil of each pot. Remaining 10 pots were prepared as a comparative group, and instead of the cinnamic dispersion, 100 ml of water was added to each pot. Then, the cultivation was continued on the pots in each group under general conditions. The cultivation was continued on geraniums of the pots in each group, and on the 24th day, geraniums in each group started blooming. The cultivation was further continued. On the 44th day after the placement, heights of geraniums of pots in each group were measured, the dwarfing rate (%) was calculated, and the dwarfing effect of cinnamic acid dispersion on geranium young plants was examined. From the results in Table 2, it became evident that the cinnamic acid dispersions are effective in dwarfing geranium young plants.

O=C(O)C=Cc1ccccc1 [cinnamic acid]
Plant Height (cucumber young plants; 0.05% aqueous solution): 7.8 cm
Dwarfing Rate (cucumber young plants; 0.05% aqueous solution): 21.2%
Plant Height (cucumber young plants; 0.2% aqueous solution): 6.2 cm
Dwarfing Rate (cucumber young plants; 0.2% aqueous solution): 37.4%
dwarfing effect (cucumber young plants; cucumber young plants, 0.05% and 0.2% aqueous solutions): effective
Plant Height (geranium young plants; 0.01% dispersion): 13.5 cm
Dwarfing Rate (geranium young plants; 0.01% dispersion): 12.9%
Plant Height (geranium young plants; 0.1% dispersion): 6.1 cm
Dwarfing Rate (geranium young plants; 0.1% dispersion): 60.6%
dwarfing effect (geranium young plants; geranium young plants, 0.01% and 0.1% dispersions): effective
